Test results published in the NIST ThermoML archive (doi:10.1007/s10765-005-5572-8).

Experiments:
[1] = xn = mol fraction of the nth substance listed; conditions: 298.15 K, 101 kPa, Liquid
[2] = refractive index (Na D-line) (dimensionless); xn = mol fraction of the nth substance listed; conditions: 298.15 K, 101 kPa, Liquid, Standard Abbe refractometry
[3] = refractive index (Na D-line) (dimensionless); conditions: 298.15 K; 101.33 kPa; Liquid; Standard Abbe refractometry
[4] = 298.15 K; 101 kPa; Liquid

CCCCCC [hexane] + CC(C)CCCC(C)CCCC(C)CCCCC(C)CCCC(C)CCCC(C)C
x2 = 0
Conditions	mass density [kg/m3]	refractive index	viscosity [mPa·s]
[1]	654.8	–	0.294
[2]	–	1.3745	–

CC(C)CCCC(C)CCCC(C)CCCCC(C)CCCC(C)CCCC(C)C (stereo not drawn) [2,6,10,15,19,23-hexamethyltetracosane] + CCCCCC
Conditions	mass density, [1] [kg/m3]	refractive index, [2]	viscosity, [1] [mPa·s]
x1 = 0.0144	663.9	1.3798	0.405
x1 = 0.0481	682.1	1.3904	0.593
x1 = 0.0748	694.2	1.3976	0.727
x1 = 0.1218	711.9	1.4068	0.971
x1 = 0.1779	728.5	1.4153	1.413
x1 = 0.2858	751.4	1.4244	2.923
x1 = 0.3695	764	1.431	4.685
x1 = 0.4258	770.7	1.4349	6.068
x1 = 0.5661	783.6	1.4435	10.15
x1 = 0.718	793.5	1.4468	15.59
x1 = 0.807	798	1.4468	19.6
x1 = 0.8939	801.7	1.447	24.32
x1 = 0.9593	804.1	1.447	28.41
x1 = 0.9943	805.2	1.4472	30.74
x1 = 1	805.4	1.4474	31.12

CCCCCC [hexane] + C1CCCCC1
[1], x2 = 0
Conditions	mass density [kg/m3]	viscosity [mPa·s]
–	654.8	0.294

CC(C)CCCC(C)CCCC(C)CCCCC(C)CCCC(C)CCCC(C)C (stereo not drawn) [2,6,10,15,19,23-hexamethyltetracosane]
Conditions	mass density [kg/m3]	refractive index	viscosity [mPa·s]
[3]	–	1.4474	–
[4]	805.4	–	31.12

CCCCCC [hexane] + CCCCCCCCCC
x2 = 0
Conditions	mass density [kg/m3]	refractive index	viscosity [mPa·s]
[1]	654.8	–	0.294
[2]	–	1.3745	–

CCCCCCCCCCCCCCCC [hexadecane]
Conditions	mass density [kg/m3]	refractive index	viscosity [mPa·s]
[3]	–	1.434	–
[4]	770.6	–	3.039

CCCCCC [hexane]
Conditions	mass density [kg/m3]	refractive index	viscosity [mPa·s]
[3]	–	1.3745	–
[4]	654.8	–	0.294

C1CCCCC1 [cyclohexane] + CCCCCC
[1]
Conditions	mass density [kg/m3]	viscosity [mPa·s]
x1 = 0.0357	658.2	0.295
x1 = 0.1127	665.9	0.301
x1 = 0.2	674.9	0.312
x1 = 0.3288	688.6	0.342
x1 = 0.462	703.5	0.405
x1 = 0.5424	712.9	0.451
x1 = 0.577	717	0.472
x1 = 0.6703	728.4	0.539
x1 = 0.7543	739.2	0.603
x1 = 0.8703	754.9	0.71
x1 = 0.9451	765.5	0.794
x1 = 0.974	769.7	0.842
x1 = 0.9935	772.7	0.894
x1 = 1	773.7	0.898

CCCCCC [hexane] + CCCCCCCCCCCCCCCC
x2 = 0
Conditions	mass density [kg/m3]	refractive index	viscosity [mPa·s]
[1]	654.8	–	0.294
[2]	–	1.3745	–

C1CCCCC1 [cyclohexane]
Conditions	mass density [kg/m3]	refractive index	viscosity [mPa·s]
[3]	–	1.4235	–
[4]	773.7	–	0.898

CCCCCCCCCCCCCCCC [hexadecane] + CCCCCC
Conditions	mass density, [1] [kg/m3]	refractive index, [2]	viscosity, [1] [mPa·s]
x1 = 0.0284	662.1	1.3784	0.322
x1 = 0.0757	673.3	1.386	0.382
x1 = 0.1349	685.7	1.395	0.473
x1 = 0.1842	694.9	1.4006	0.559
x1 = 0.266	708.4	1.4087	0.703
x1 = 0.3427	719.1	1.4147	0.864
x1 = 0.4864	735.5	1.4262	1.205
x1 = 0.503	737.1	1.4266	1.24
x1 = 0.6779	751.8	1.4318	1.735
x1 = 0.7546	757	1.432	2.022
x1 = 0.8927	765.1	1.4322	2.562
x1 = 0.9468	768	1.4332	2.805
x1 = 0.9902	770.1	1.434	3.012
x1 = 1	770.6	1.434	3.039

CCCCCCCCCC [decane]
Conditions	mass density [kg/m3]	refractive index	viscosity [mPa·s]
[3]	–	1.41	–
[4]	726.2	–	0.859

CCCCCCCCCC [decane] + CCCCCC
Conditions	mass density, [1] [kg/m3]	refractive index, [2]	viscosity, [1] [mPa·s]
x1 = 0.021	657.1	1.3755	0.296
x1 = 0.0659	662	1.378	0.307
x1 = 0.1584	671.3	1.382	0.337
x1 = 0.233	678.1	1.3854	0.355
x1 = 0.2761	681.8	1.3871	0.377
x1 = 0.3493	687.8	1.39	0.417
x1 = 0.4506	695.3	1.394	0.471
x1 = 0.541	701.4	1.3973	0.518
x1 = 0.6382	707.4	1.4004	0.567
x1 = 0.7836	715.6	1.4045	0.657
x1 = 0.9095	722	1.408	0.772
x1 = 0.9654	724.7	1.4095	0.823
x1 = 0.9936	726	1.4099	0.855
x1 = 1	726.2	1.41	0.859
